Results: US9751858B2, “3-heteroaroylamino-propionic acid derivatives and their use as pharmaceuticals” (SANOFI, priority 2011, dated 2017)

Molecular target: T1, Recombinant human cathepsin A (Homo sapiens, UniProt P10619)
T1 construct: Recombinant human cathepsin A (residues 29-480, with a C-terminal 10-His tag); 10-His (C); purchased R&D Systems 1049-SE
T1 sequence (P10619 29-326 limits assumed): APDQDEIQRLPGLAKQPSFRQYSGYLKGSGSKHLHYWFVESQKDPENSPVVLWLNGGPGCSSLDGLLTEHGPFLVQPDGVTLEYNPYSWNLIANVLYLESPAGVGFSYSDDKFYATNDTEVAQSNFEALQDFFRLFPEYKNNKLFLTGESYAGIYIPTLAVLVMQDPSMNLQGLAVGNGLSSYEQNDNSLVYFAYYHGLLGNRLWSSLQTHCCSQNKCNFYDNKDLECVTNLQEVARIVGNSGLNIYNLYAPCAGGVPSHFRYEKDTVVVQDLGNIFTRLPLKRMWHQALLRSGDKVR
T1 sequence (P10619 327-480 limits assumed): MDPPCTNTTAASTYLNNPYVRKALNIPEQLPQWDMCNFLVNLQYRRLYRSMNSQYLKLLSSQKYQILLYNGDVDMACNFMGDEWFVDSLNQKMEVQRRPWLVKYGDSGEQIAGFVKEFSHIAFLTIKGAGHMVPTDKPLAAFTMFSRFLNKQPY
Assay: Cathepsin A inhibitory activity
Format: biochemical
Conditions: activated recombinant human cathepsin A 833 ng/ml, Bodipy FL-labeled bradykinin 2 μM, pH 5.5, 15 min room temperature
Experimental: a) Cathepsin a Inhibitory Activity
Briefly, cathepsin A was incubated at 10 μg/ml with cathepsin L at 1 μg/ml in activation buffer (25 mM 2-(morpholin-4-yl)-ethanesulfonic acid (MES), pH 6.0, containing 5 mM dithiothreitol (DTT)) for 15 min at 37° C.
The activated cathepsin A was diluted in assay buffer (25 mM MES, pH 5.5, containing 5 mM DTT) and mixed with the test compound (dissolved in assay buffer containing (v/v) 3% DMSO) or, in the control experiments, with the vehicle in a multiple assay plate. After incubation for 15 min at room temperature, as substrate then bradykinin carrying an N-terminal ®Bodipy FL (4,4-difluoro-5,7-dimethyl-4-bora-3a,4a-diaza-s-indacene-3-propionyl) label (JPT Peptide Technologies GmbH; dissolved in assay buffer) was added to the mixture. […] After incubation for 15 min at room temperature the reaction was stopped by the addition of stop buffer (130 mM 2-(4-(2-hydroxy-ethyl)-piperazin-1-yl)-ethanesulfonic acid, pH 7.4, containing (v/v) 0.013%® Triton X-100, 0.13% Coating Reagent 3 (Caliper Life Sciences), 6.5% DMSO and 20 μM ebelactone B (Sigma, # E0886)).
Uncleaved substrate and product were then separated by a microfluidic capillary electrophoresis on a LabChip® 3000 Drug Discovery System (12-Sipper-Chip; Caliper Life Sciences) and quantified by determination of the respective peak areas. Substrate turnover was calculated by dividing product peak area by the sum of substrate and product peak areas, and the enzyme activity and the inhibitory effect of the test compound thus quantified.

O=C(O)C[C@H](NC(=O)CCc1nc(-c2ccccc2F)no1)c1ccccc1F [Example 59, (S)-3-(2-Fluoro-phenyl)-3-{3-[3-(2-fluoro-phenyl)-[1,2,4]oxadiazol-5-yl]-propionylamino}-propionic acid]
IC50: 0.337 µM

O=C(O)C[C@H](NC(=O)c1nc(-c2ccccc2)oc1C(F)(F)F)c1cccc(Cl)c1Cl [Example 122, (S)-3-(2,3-Dichloro-phenyl)-3-[(2-phenyl-5-trifluoromethyl-oxazole-4-carbonyl)-amino]-propionic acid]
IC50: 1.95 µM

Cc1oc(-c2ccccc2F)nc1C(=O)N[C@@H](CC(=O)O)c1ccccc1 [Example 10, (S)-3-{[2-(2-Fluoro-phenyl)-5-methyl-oxazole-4-carbonyl]-amino}-3-phenyl-propionic acid]
IC50: 2.32 µM

O=C(O)C[C@H](NC(=O)c1nc(-c2ccccc2)n(-c2ccccc2)n1)c1ccccc1 [Example 69, (S)-3-[(1,5-Diphenyl-1H-[1,2,4]triazole-3-carbonyl)-amino]-3-phenyl-propionic acid]
IC50: 0.387 µM

O=C(O)C[C@H](NC(=O)CCc1nc(-c2ccccc2F)no1)c1cccc(C(F)(F)F)c1 [Example 113, (S)-3-{3-[3-(2-Fluoro-phenyl)-[1,2,4]oxadiazol-5-yl]-propionylamino}-3-(3-trifluoromethyl-phenyl)-propionic acid]
IC50: > 10 µM

Cc1ccc([C@H](CC(=O)O)NC(=O)c2noc(-c3ccccc3F)n2)cc1 [Example 12, (S)-3-{[5-(2-Fluoro-phenyl)-[1,2,4]oxadiazole-3-carbonyl]-amino}-3-p-tolyl-propionic acid]
IC50: > 10 µM

O=C(N[C@H](C(=O)O)C1CCCCC1)c1noc(-c2cnccc2C(F)(F)F)n1 [Example 54, (S)-Cyclohexyl-{[5-(4-trifluoromethyl-pyridin-3-yl)-[1,2,4]oxadiazole-3-carbonyl]-amino}-acetic acid]
IC50: 16.7 µM

CC(C)c1oc(-c2ccccc2)nc1C(=O)N[C@@H](CC(=O)O)c1ccc(F)cc1 [Example 48, (S)-3-(4-Fluoro-phenyl)-3-[(5-isopropyl-2-phenyl-oxazole-4-carbonyl)-amino]-propionic acid]
IC50: 1.82 µM

Cc1ccccc1[C@H](CC(=O)O)NC(=O)c1cc(-c2ccc(Cl)cc2)on1 [Example 26, (S)-3-{[5-(4-Chloro-phenyl)-isoxazole-3-carbonyl]amino}-3-o-tolyl-propionic acid]
IC50: > 10 µM

O=C(O)C[C@H](NC(=O)c1nc(-c2ccccc2)oc1C(F)(F)F)c1ccc(Cl)cc1Cl [Example 123, (S)-3-(2,4-Dichloro-phenyl)-3-[(2-phenyl-5-trifluoromethyl-oxazole-4-carbonyl)-amino]-propionic acid]
IC50: 14.4 µM

Cc1cccc([C@H](CC(=O)O)NC(=O)c2noc(-c3ccccc3F)n2)c1 [Example 16, (S)-3-{[5-(2-Fluoro-phenyl)-[1,2,4]oxadiazole-3-carbonyl]-amino}-3-m-tolyl-propionic acid]
IC50: > 10 µM

COc1ccc([C@H](CC(=O)O)NC(=O)c2nc(-c3ccccc3)oc2C)cc1 [Example 23, (S)-3-(4-Methoxy-phenyl)-3-[(5-methyl-2-phenyl-oxazole-4-carbonyl)-amino]-propionic acid]
IC50: 2.39 µM

O=C(O)C[C@H](NC(=O)c1nc(-c2ccccc2)n(-c2ccccc2)n1)c1ccccc1Cl [Example 106, (S)-3-(2-Chloro-phenyl)-3-[(1,5-diphenyl-1H-[1,2,4]triazole-3-carbonyl)-amino]-propionic acid]
IC50: 0.119 µM

COc1cccc([C@H](CC(=O)O)NC(=O)c2nc(-c3ccccc3)oc2C(C)C)c1 [Example 65, (S)-3-[(5-Isopropyl-2-phenyl-oxazole-4-carbonyl)-amino]-3-(3-methoxy-phenyl)-propionic acid]
IC50: > 10 µM

O=C(O)CC(NC(=O)c1nc(-c2ccccc2)oc1C(F)(F)F)C1CCCCC1 (stereo not shown) [Example 68, 3-Cyclohexyl-3-[(2-phenyl-5-trifluoromethyl-oxazole-4-carbonyl)-amino]-propionic acid]
IC50: 14.8 µM

O=C(O)C[C@H](NC(=O)c1noc(-c2cccc(F)c2F)n1)c1ccccc1F [Example 43, (S)-3-{[5-(2,3-Difluoro-phenyl)-[1,2,4]oxadiazole-3-carbonyl]-amino}-3-(2-fluoro-phenyl)-propionic acid]
IC50: 0.107 µM

Cc1ccccc1[C@H](CC(=O)O)NC(=O)c1nc(-c2ccccc2F)oc1C [Example 25, (S)-3-{[2-(2-Fluoro-phenyl)-5-methyl-oxazole-4-carbonyl]-amino}-3-o-tolyl-propionic acid]
IC50: 0.311 µM

Cc1ccccc1[C@H](CC(=O)O)NC(=O)c1nc(C2CC2)n(-c2ccccc2Cl)n1 [Example 82, (S)-3-{[1-(2-Chloro-phenyl)-5-cyclopropyl-1H-[1,2,4]triazole-3-carbonyl]-amino}-3-o-tolyl-propionic acid]
IC50: > 10 µM

O=C(O)C[C@H](NC(=O)CCc1nc(-c2ccccc2F)no1)c1cccc(Cl)c1 [Example 74, (S)-3-(3-Chloro-phenyl)-3-{3-[3-(2-fluoro-phenyl)-[1,2,4]oxadiazol-5-yl]-propionylamino}-propionic acid]
IC50: 0.61 µM

Cc1oc(-c2ccccc2)nc1C(=O)N[C@@H](CC(=O)O)c1cccc(F)c1 [Example 8, (S)-3-(3-Fluoro-phenyl)-3-[(5-methyl-2-phenyl-oxazole-4-carbonyl)-amino]-propionic acid]
IC50: 5.31 µM

Cc1oc(-c2ccccc2)nc1C(=O)N[C@@H](CC(=O)O)c1cccc(Cl)c1Cl [Example 76, (S)-3-(2,3-Dichloro-phenyl)-3-[(5-methyl-2-phenyl-oxazole-4-carbonyl)-amino]-propionic acid]
IC50: 0.59 µM

O=C(O)C[C@H](NC(=O)c1nc(-c2ccccc2)oc1C(F)(F)F)c1ccccc1Cl [Example 97, (S)-3-(2-Chloro-phenyl)-3-[(2-phenyl-5-trifluoromethyl-oxazole-4-carbonyl)-amino]-propionic acid]
IC50: 7.37 µM

Cc1ccc([C@H](CC(=O)O)NC(=O)c2noc(-c3cccc(F)c3F)n2)cc1 [Example 38, (S)-3-{[5-(2,3-Difluoro-phenyl)-[1,2,4]oxadiazole-3-carbonyl]-amino}-3-p-tolyl-propionic acid]
IC50: 6 µM

Cc1ccccc1[C@H](CC(=O)O)NC(=O)c1c[nH]c(-c2ccccc2)n1 [Example 1, (S)-3-[(2-Phenyl-1H-imidazole-4-carbonyl)-amino]-3-o-tolyl-propionic acid]
IC50: 0.213 µM

O=C(O)C[C@H](NC(=O)c1noc(-c2ccccc2F)n1)c1cccc(C(F)(F)F)c1 [Example 81, (S)-3-{[5-(2-Fluoro-phenyl)-[1,2,4]oxadiazole-3-carbonyl]-amino}-3-(3-trifluoromethyl-phenyl)-propionic acid]
IC50: > 10 µM

Cc1cccc([C@H](CC(=O)O)NC(=O)CCc2nc(-c3ccccc3F)no2)c1 [Example 50, (S)-3-{3-[3-(2-Fluoro-phenyl)-[1,2,4]oxadiazol-5-yl]-propionylamino}-3-m-tolyl-propionic acid]
IC50: > 10 µM

O=C(N[C@@H](Cc1ccc(Cl)cc1)C(=O)O)c1noc(-c2cnccc2C(F)(F)F)n1 [Example 99, (S)-3-(4-Chloro-phenyl)-2-{[5-(4-trifluoromethyl-pyridin-3-yl)-[1,2,4]oxadiazole-3-carbonyl]-amino}-propionic acid]
IC50: > 10 µM

Cc1ccccc1[C@H](CC(=O)O)NC(=O)c1nn(C)cc1NS(=O)(=O)Cc1ccccc1 [Example 117, (S)-3-[(1-Methyl-4-phenylmethanesulfonylamino-1H-pyrazole-3-carbonyl)-amino]-3-o-tolyl-propionic acid]
IC50: > 10 µM

CC(C)c1oc(-c2ccccc2)nc1C(=O)NC(CC(=O)O)C1CCCCC1 (stereo not shown) [Example 34, 3-Cyclohexyl-3-[(5-isopropyl-2-phenyl-oxazole-4-carbonyl)-amino]-propionic acid]
IC50: 1.47 µM

Cc1oc(-c2ccccc2)nc1C(=O)N[C@@H](CC(=O)O)c1ccccc1F [Example 7, (S)-3-(2-Fluoro-phenyl)-3-[(5-methyl-2-phenyl-oxazole-4-carbonyl)-amino]-propionic acid]
IC50: 4.13 µM

Cc1nc(C(=O)N[C@@H](CC(=O)O)c2ccccc2)nn1-c1ccccc1Cl [Example 33, (S)-3-{[1-(2-Chloro-phenyl)-5-methyl-1H-[1,2,4]triazole-3-carbonyl]-amino}-3-phenyl-propionic acid]
IC50: 1.03 µM
